Patent US20210171948A1, “COMPOSITIONS AND METHODS FOR TARGETING GLYPICAN-2 IN THE TREATMENT OF CANCER” (Shepherd Therapeutics, Inc., priority 2019, published 2021)
d = 2'-deoxy (DNA); r = 2'-OH (RNA)

Test system: CHP212, SKNAS, SKNBE2 or CHLA90 neuroblastoma cells
Test: Tumor spheroid formation after siRNA transfection, low attachment plate (Example 11)
Assay type: cell-based
Conditions: 96 hours following transfection, in cells with the highest degree of GPC2 mRNA knockdown (FIG. 6)
Procedure: The effect of GPC2 knockdown on tumor spheroid formation was assessed. CHP212, SKNAS, SKNBE2 or CHLA90 neuroblastoma cells were transfected with either a scrambled control siRNA or with a GPC2 siRNA of sequence 5 from Table 7 using the RNAiMAX Lipofectamine kit (Invitrogen, Carlsbad, Calif.), as previously described. Following transfection, cells were plated in a low attachment 96 well plate for spheroid formation while under siRNA treatment.

GPC2 siRNA 5: siRNA duplex: sense CUCAGUAGCCCAGCACUCU[dT][dT] (SEQ ID NO: 211), anti-sense AGAGUGCUGGGCUACUGAG[dT][dT] (SEQ ID NO: 212) (sense CUCAGUAGCCCAGCACUCUTT; antisense AGAGUGCUGGGCUACUGAGTT; sugars from the 5' end r19 d2, backbone not given here; listed as Homo sapiens)
Tumor spheroid formation: greatest inhibition in their ability to form spheroids
